# Results from patent publication US20250042850A1, “PHARMACEUTICAL COMPOUNDS AND METHODS OF MAKING AND USING THE SAME” (Athos Therapeutics, Inc., priority 2021, published 2025).
# Entries after “also recorded” stand apart in the source; their conditions may differ. Like-named read-outs stand apart in the source and are kept apart here.
# What was measured:
# CYP3A4 = CYP3A4 (Homo sapiens (Human), UniProt P08684); assay: Cytochrome P450 inhibition assay, substrate cocktail in human liver microsome; assay type: in vitro ADME; conditions: microsomes
# CYP3A4, sequence (P08684 whole entry): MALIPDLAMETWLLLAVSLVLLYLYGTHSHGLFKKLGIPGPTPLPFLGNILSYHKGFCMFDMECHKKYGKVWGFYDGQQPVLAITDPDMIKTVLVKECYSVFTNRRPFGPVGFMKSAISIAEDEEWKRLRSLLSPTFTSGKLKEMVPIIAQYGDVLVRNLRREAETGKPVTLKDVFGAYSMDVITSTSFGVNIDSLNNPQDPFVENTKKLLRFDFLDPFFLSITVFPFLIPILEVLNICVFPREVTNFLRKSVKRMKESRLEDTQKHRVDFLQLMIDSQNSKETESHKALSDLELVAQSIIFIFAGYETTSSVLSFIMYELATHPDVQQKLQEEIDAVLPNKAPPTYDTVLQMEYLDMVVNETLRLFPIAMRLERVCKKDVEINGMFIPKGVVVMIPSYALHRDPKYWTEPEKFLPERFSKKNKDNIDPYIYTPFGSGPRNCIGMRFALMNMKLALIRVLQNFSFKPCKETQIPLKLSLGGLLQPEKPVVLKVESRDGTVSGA
# Experimental: (§1) Cytochrome P450 inhibition of a drug is a key factor in determining pharmacokinetic drug-drug interactions. The objective of this study is to evaluate the inhibition potential of VNN1 inhibitors on six (6) major human cytochrome P450 enzymes, including CYP1A2, CYP2C8, CYP2C9, CYP2C19, CYP2D6, and CYP3A4. Inhibition was determined by using a substrate cocktail and analyzing the rate of specific metabolites formation. The cytochrome P450 inhibition assay was developed using a cocktail consisting of six (6) probe substrates ethoxy-resorufin (CYP1A2), rosiglitazone (CYP2C8), diclofenac (CYP2C9), S-mephenytoin (CYP2C19), dextromethorphan (CYP2D6), and midazolam (CYP3A4). The cocktail was incubated in human liver microsome with NADPH regenerating system (NRS) in a shaking bath at 37±2° C. The formation of specific metabolites was monitored by LC/MS/MS. Test compound was added to the cocktail-liver microsome mixture at varying concentrations and its effect on cytochrome P450 activity was determined by analyzing the rate of specific metabolite formation. The percent inhibition was calculated and plotted with reference to the concentration, and the IC50 value for inhibition was derived by fitting the data with a standard sigmoidal dose-response equation via MLA “Quest Graph™ ED50 Calculator.” AAT Bioquest, Inc, 17 Sep. 2020, aatbio.com/tools/ed50-calculator. […]. […].
# (§2) Inhibition by Cytochrome P450 is determined using a substrate cocktail and analyzing the rate of specific metabolites formation outlined in Example 21. The following structures were tested: Compound 5, Compound 9, Compound 10, Compound 13, Compound 14, Compound 16, Compound 20, Compound 21, Compound 23, Compound 24, and Compound 25.
# CYP1A2 = CYP1A2 (Homo sapiens (Human), UniProt P05177); assay: as above; assay type: in vitro ADME; conditions: microsomes
# CYP1A2, sequence (P05177 whole entry): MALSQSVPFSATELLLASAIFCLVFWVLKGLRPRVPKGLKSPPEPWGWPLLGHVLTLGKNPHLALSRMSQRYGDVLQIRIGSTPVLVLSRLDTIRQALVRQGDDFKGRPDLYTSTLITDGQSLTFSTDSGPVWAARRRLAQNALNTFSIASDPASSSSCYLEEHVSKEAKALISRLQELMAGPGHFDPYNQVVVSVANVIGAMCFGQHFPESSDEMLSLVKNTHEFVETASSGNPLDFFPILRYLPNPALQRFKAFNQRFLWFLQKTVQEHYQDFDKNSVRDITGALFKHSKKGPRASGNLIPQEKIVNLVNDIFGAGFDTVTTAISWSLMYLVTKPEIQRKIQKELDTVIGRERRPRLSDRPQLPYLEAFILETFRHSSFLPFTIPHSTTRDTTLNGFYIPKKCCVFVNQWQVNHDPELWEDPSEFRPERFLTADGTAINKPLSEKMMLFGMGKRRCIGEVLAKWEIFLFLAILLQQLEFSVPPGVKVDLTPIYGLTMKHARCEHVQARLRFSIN
# Experimental: as §1, §2
# CYP2C9 = CYP2C9 (Homo sapiens (Human), UniProt P11712); assay: as above; assay type: in vitro ADME; conditions: microsomes
# CYP2C9, sequence (P11712 whole entry): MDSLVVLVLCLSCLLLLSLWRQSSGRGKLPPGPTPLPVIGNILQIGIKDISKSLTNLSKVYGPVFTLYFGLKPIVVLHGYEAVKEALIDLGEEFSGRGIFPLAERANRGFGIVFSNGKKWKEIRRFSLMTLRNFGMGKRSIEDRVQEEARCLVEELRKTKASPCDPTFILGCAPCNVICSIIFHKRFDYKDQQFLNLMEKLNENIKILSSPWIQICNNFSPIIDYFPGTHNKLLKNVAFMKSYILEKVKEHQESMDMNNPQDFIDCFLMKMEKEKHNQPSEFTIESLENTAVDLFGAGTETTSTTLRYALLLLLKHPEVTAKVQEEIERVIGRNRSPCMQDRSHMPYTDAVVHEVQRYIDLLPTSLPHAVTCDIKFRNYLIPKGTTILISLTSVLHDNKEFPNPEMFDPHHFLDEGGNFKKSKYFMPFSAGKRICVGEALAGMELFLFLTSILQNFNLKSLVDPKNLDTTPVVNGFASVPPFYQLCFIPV
# Experimental: as §1, §2
# CYP2C19 = CYP2C19 (Homo sapiens (Human), UniProt P33261); assay: as above; assay type: in vitro ADME; conditions: CYP isozyme 2C19, human liver microsome
# CYP2C19, sequence (P33261 whole entry): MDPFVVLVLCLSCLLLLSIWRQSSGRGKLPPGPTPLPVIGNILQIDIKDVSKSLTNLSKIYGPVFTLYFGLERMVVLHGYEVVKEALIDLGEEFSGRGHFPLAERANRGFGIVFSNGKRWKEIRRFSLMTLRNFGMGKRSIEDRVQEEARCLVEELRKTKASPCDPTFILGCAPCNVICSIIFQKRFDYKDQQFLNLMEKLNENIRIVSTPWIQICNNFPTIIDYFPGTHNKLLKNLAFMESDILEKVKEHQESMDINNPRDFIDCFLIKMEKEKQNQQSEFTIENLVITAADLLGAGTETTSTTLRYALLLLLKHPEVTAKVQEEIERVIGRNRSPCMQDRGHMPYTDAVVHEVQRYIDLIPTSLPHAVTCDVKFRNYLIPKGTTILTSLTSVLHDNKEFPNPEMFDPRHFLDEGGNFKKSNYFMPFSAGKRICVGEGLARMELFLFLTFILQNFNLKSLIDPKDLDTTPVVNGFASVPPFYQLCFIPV
# Experimental: as §1, §2
# CYP2C8 = CYP2C8 (Homo sapiens (Human), UniProt P10632); assay: as above; assay type: in vitro ADME; conditions: microsomes
# CYP2C8, sequence (P10632 whole entry): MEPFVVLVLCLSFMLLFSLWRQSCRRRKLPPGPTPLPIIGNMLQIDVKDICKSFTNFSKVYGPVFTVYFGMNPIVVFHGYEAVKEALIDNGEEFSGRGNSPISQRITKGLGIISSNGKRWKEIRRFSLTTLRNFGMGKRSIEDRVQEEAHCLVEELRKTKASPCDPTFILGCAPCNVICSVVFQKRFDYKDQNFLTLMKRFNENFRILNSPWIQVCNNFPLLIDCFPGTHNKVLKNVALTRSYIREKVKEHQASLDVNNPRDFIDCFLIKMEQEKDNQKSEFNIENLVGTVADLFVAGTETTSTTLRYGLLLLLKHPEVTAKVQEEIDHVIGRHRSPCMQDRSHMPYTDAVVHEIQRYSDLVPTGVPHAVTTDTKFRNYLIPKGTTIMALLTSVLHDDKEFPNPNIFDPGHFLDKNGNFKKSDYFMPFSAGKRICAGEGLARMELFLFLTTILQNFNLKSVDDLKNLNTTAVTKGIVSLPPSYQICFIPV
# Experimental: as §1, §2
# CYP2D6 = CYP2D6 (Homo sapiens (Human), UniProt P10635); assay: as above; assay type: in vitro ADME; conditions: microsomes
# CYP2D6, sequence (P10635 whole entry): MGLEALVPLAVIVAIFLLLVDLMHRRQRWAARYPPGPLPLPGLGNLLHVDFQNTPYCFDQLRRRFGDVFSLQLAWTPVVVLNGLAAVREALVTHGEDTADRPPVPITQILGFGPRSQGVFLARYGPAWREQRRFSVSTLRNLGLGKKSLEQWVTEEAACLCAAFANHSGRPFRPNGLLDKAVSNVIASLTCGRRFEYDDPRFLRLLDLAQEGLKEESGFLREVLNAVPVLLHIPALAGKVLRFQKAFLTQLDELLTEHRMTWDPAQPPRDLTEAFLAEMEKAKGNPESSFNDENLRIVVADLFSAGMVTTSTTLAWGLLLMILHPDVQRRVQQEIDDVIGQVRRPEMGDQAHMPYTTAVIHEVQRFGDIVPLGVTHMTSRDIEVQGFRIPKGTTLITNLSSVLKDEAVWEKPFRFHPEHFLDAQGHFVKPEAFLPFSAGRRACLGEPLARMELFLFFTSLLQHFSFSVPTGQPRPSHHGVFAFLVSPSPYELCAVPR
# Experimental: as §1, §2
# Vanin-1 = Vanin-1 (Homo sapiens (Human), UniProt O95497); assay: VNN1 inhibitor binding assay (Kd, affinity beads, qPCR readout); conditions: read-out: Vanin Affinity (nM), Vanin-1 Binding constants
# Vanin-1, sequence (O95497 22-513): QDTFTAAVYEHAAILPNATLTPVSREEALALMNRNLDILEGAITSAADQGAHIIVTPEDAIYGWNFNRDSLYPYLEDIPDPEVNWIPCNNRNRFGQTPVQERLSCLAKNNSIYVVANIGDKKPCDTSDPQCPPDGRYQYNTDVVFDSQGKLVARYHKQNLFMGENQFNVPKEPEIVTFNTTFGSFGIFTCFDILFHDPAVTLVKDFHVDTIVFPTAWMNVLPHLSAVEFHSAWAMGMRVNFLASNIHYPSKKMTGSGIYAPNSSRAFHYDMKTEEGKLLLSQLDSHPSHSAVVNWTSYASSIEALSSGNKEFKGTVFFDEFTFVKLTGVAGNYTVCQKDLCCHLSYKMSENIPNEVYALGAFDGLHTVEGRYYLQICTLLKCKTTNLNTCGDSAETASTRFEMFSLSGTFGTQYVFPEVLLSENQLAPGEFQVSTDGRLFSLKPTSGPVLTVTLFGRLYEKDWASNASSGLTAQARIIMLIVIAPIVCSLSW
# Experimental: (§3) Test compounds were prepared as 111X stocks in 100% DMSO. Kd values were determined using an 11-point 3-fold compound dilution series with three DMSO control points. […] The compounds were then diluted directly into the assays such that the final concentration of DMSO was 0.9%. All reactions were performed in polypropylene 384-well plate. Each was a final volume of 0.02 ml. […] The beads were then re-suspended in elution buffer (1×PBS, 0.05% Tween 20, 0.5 μM non-biotinylated affinity ligand) and incubated at room temperature with shaking for 30 minutes. The kinase concentration in the eluates was measured by qPCR.
# Binding constants were calculated with a standard dose-response curve using the Hill equation:
# The Hill Slope was set to −1. Curves were fitted using a non-linear least square fit with the Levenberg-Marquardt algorithm. The binding data is summarized in Table 1 where A is less than 100 nM, B is 100 to 500 nM, and C is greater than 500 nM.
# as §3, with “are” for “were”, “is” for “was”, “reactions” for “reactions were”
# Binding constants are calculated with a standard dose-response curve using the Hill equation:
# The Hill Slope was set to −1. Curves were fitted using a non-linear least square fit with the Levenberg-Marquardt algorithm. The binding data is summarized in Table 4 where A is less than 100 nM, B is 100 to 500 nM, and C is greater than 500 nM.
# [1] = system: TNF-alpha (TNFA), interleukin 6 (IL6), interleukin 1beta (IL1B), MCP1 and interleukin 8 (IL8); assay: Immune cellular assay, cytokine ELISA multiplex in LPS-treated THP-1 derived macrophages; assay type: cell-based, human; conditions: 1 μM, THP-1 macrophages, 100 ng/mL LPS for 4 or 24 hours
# Experimental: The anti-inflammatory properties of the four VNN1 inhibitors (Compound 1, Compound 2, Compound 3, and Compound 80) were evaluated in an immune cellular assay targeting key pro-inflammatory cytokines involved in the pathogenesis of multiple autoimmune disease.
# Specifically, THP-1 human monocytes were grown in 6-well plates (RPMI 1640+10% FBS+1% P/S). After washing with PBS the THP-1 cells were differentiated into macrophages using 20 nM of phorbol 12-myristate 13-acetate (PMA) for 24 hrs. Compound 1, Compound 2, Compound 3, and Compound 80 (1 μM) were added into the macrophages, which are incubated for 4 hours before the addition of 100 ng/mL lipopolysaccharide (LPS) for either 4 or 24 hours. Next, the macrophages are collected via centrifugation at 1.2K rpm for 5 min and use their media to evaluate cytokine protein levels by using the Bio-rad Cytokine ELISA multiplex assay (cat. No M5000031YV). The supernatants from macrophages treated only with only LPS+PMA are collected and use as negative controls.
# The anti-inflammatory properties of the VNN1 inhibitors Compound 5, Compound 9, Compound 10, Compound 13, Compound 14, Compound 16, Compound 20, Compound 21, Compound 26, Compound 23, and Compound 24 are evaluated using the immune cellular assay outlined in Example 6. Suppression of TNF-alpha (TNFA), interleukin 6 (IL6), interleukin 1beta (IL1B), MCP1 and interleukin 8 (IL8) is determined.
# TNF-alpha (TNFA) = assay: Cellular assay, TNF-alpha ELISA in LPS-treated THP-1 cells; assay type: cell-based; conditions: 1 μM, THP-1 human monocytes, LPS 50 ng/ml, p<0.05
# Experimental: THP-1 cells were grown to confluence and plated in 6-well plates. PMA (25 nM) was added to the medium and replaced with non-PMA containing medium 24 hrs later. ATH compounds (1 μM) or vehicle (0.1% DMSO) were added and allowed to incubate. After 4 hrs LPS (50 ng/ml) was added without replacement of the medium and supernatants were collected after 4 and 24 hrs. Media were placed on ice for cytokine detection using ELISA (Quantikine, R&D Systems).
# VNN1 inhibitors Compound 1 and Compound 2 show suppression of TNF-alpha (TNFA) expression after LPS (lipopolysaccharide) treatment, in THP-1 human monocytes (FIG. 3, p<0.05 for both).
# [2] = parallel artificial membrane permeation assay (PAMPA); conditions: 20 μM in PBS/MeOH 90:10, 5 hours at room temperature
# Experimental: (§4) The permeability of compounds was evaluated with the parallel artificial membrane permeation assay (PAMPA) as an in vivo model of passive diffusion across a porous filter coated with a lipid/oil/lipid tri-layer artificial membrane. […] Donor solutions of test compound (300 μL, 20 μM in PBS/MeOH 90:10) were added to each well of the donor plate. 200 μL of PBS/MeOH 90:10 was added to each well of the acceptor plate. The acceptor plate was coupled with the donor plate and incubated for 5 hours at room temperature (RT) without agitation. In each plate, test compound was tested in triplicate. At the end of the incubation, test compound concentration in the initial donor solution, acceptor and the donor wells were determined using LC/MS/MS. Permeability of test compound was calculated based on the formula described in “Analytical Method”.
# [3] = for Permeability, Pe: PAMPA, 5 h, 20 μM
# Experimental: as §4
# [4] = positive controls, published class; cited from earlier work
# in vitro = conditions: PAMPA
# Experimental: as §4
compound,measurement,setting,value
"O=C(Cc1ccccc1)c1ccn(C(=O)c2ccccc2F)c1 [Compound 1, 1-(1-(2-fluorobenzoyl)-1H-pyrrol-3-yl)-2-phenylethan-1-one]",IC50,CYP3A4,> 100 µM
same,IC50,CYP1A2,> 100 µM
same,IC50,CYP2C9,> 100 µM
same,IC50,CYP2C19,50.6 µM
same,IC50,CYP2C8,> 100 µM
same,IC50,CYP2D6,> 100 µM
same,Kd,Vanin-1,100 to 500 nM
same,"activity against IL6, TNFA and MCP1",[1],highly potent activity
same,suppression of TNF-alpha (TNFA) expression after LPS treatment,TNF-alpha (TNFA),suppression; also recorded: significantly inhibits
same,"Permeability, Pe",[2],23.6 ×10⁻⁶ cm/s
"O=C(Cc1ccccc1)c1ccn(Cc2c(F)cccc2F)c1 [Compound 2, 1-(1-(2,6-difluorobenzyl)-1H-pyrrol-3-yl)-2-phenylethan-1-one]","Permeability, Pe",[3],13.6 ×10⁻⁶ cm/s
same,IC50,CYP3A4,73.7 µM
same,IC50,CYP1A2,> 100 µM
same,IC50,CYP2C9,63.4 µM
same,IC50,CYP2C19,15.3 µM
same,IC50,CYP2C8,65.5 µM
same,IC50,CYP2D6,27 µM
same,Kd,Vanin-1,100 to 500 nM
same,"activity against IL6, TNFA and MCP1",[1],highly potent activity
same,suppression of TNF-alpha (TNFA) expression after LPS treatment,TNF-alpha (TNFA),suppression; also recorded: significantly inhibits
"O=C(c1ccn(Cc2c(F)cccc2F)c1)C(Cc1c(F)cccc1F)c1ccccc1 (stereo not shown) [Compound 3, 1-(1-(2,6-difluorobenzyl)-1H-pyrrol-3-yl)-3-(2,6-difluorophenyl)-2-phenylpropan-1-one]",Kd,Vanin-1,> 500 nM
same,"activity against IL6, TNFA and MCP1",[1],highly potent activity
"Cn1c(C(=O)Cc2ccccc2)ccc1C(=O)c1ccccc1F [Compound 22, 1-(5-(2-fluorobenzoyl)-1-methyl-1H-pyrrol-2-yl)-2-phenylethan-1-one]",Kd,Vanin-1,< 100 nM
"Cn1c(C(=O)Cc2ccccc2)ccc1C(=O)c1ccccn1 [Compound 25, 1-(1-methyl-5-picolinoyl-1H-pyrrol-2-yl)-2-phenylethan-1-one]",Kd,Vanin-1,100 to 500 nM
"Cn1c(C(=O)c2ccccc2F)ccc1C(=O)N1CCC2(CCOCC2)C1 [Compound 33, (5-(2-fluorobenzoyl)-1-methyl-1H-pyrrol-2-yl) (8-oxa-2-azaspiro[4.5]decan-2-yl) methanone]",Kd,Vanin-1,< 100 nM
"Cn1c(C(=O)NC(C)(C)C)ccc1C(=O)c1ccccc1F [Compound 43, N-(tert-butyl)-5-(2-fluorobenzoyl)-1-methyl-1H-pyrrole-2-carboxamide]",Kd,Vanin-1,< 100 nM
"Cn1cc(C(=O)Cc2ccccc2)cc1C(=O)c1ccccc1F [Compound 46, 1-(5-(2-fluorobenzoyl)-1-methyl-1H-pyrrol-3-yl)-2-phenylethan-1-one]",Kd,Vanin-1,> 500 nM
"O=C(Cc1ccccc1)c1c[nH]c(C(=O)c2ccccc2F)c1 [Compound 47, 1-(5-(2-fluorobenzoyl)-1H-pyrrol-3-yl)-2-phenylethan-1-one]",Kd,Vanin-1,> 500 nM
"Cn1cc(C(=O)c2ccccc2F)cc1C(=O)O [Compound 76, 4-(2-fluorobenzoyl)-1-methyl-1H-pyrrole-2-carboxylic acid]",Kd,Vanin-1,> 500 nM
"Cn1cc(C(=O)c2ccccc2F)cc1C(=O)N1CCC2(CCOCC2)C1 [Compound 77, (4-(2-fluorobenzoyl)-1-methyl-1H-pyrrol-2-yl) (8-oxa-2-azaspiro[4.5]decan-2-yl) methanone]",Kd,Vanin-1,< 100 nM
"CC(=O)N(C)[C@@H]1CCN(C(=O)c2cc(C(=O)c3ccccc3F)cn2C)C1 [Compound 78, (R)—N-(1-(4-(2-fluorobenzoyl)-1-methyl-1H-pyrrole-2-carbonyl)pyrrolidin-3-yl)-N-methylacetamide]",Kd,Vanin-1,< 100 nM
"Cn1cccc1C(=O)Cc1ccccc1 [Compound 80, 1-(1-methyl-1H-pyrrol-2-yl)-2-phenylethan-1-one]","activity against IL6, TNFA and MCP1",[1],highly potent activity
O=C(O)Cc1ccccc1Nc1c(Cl)cccc1Cl [Diclofenac],"Permeability, Pe",[3],10.9 ×10⁻⁶ cm/s
same,published permeability,[4],high
CCN1CCCC1CNC(=O)c1cc(S(N)(=O)=O)ccc1OC (stereo not shown) [Sulpiride],"Papp at 5 h, 20 μM",in vitro,0.0392 ×10⁻⁶ cm/s
same,PAMPA permeability Classification,[3],Low/Medium
same,published permeability,[4],low
